Read-outs that look alike come from different tables or passages of the source.
Assays:
[1] = tested on: HepG2 cells; assay: Acute extracellular flux (AEF) assay in intact HepG2 cells (Seahorse XFe96); assay type: cell-based, human
[2] = tested on: HepG2 cells; design: method as in PMID 18344530; conditions: 200 µM, not in Glu media; cited from earlier work
[3] = tested on: CI; design: method as in PMID 18344530; conditions: isolated mitochondria; read-out: CI inhibition IC50; cited from earlier work
[4] = literature values, plasma or serum of adult humans when possible; ref 68-88 (per drug, Table 2 Cmax Reference); cited from earlier work
[5] = tested on: rPFO permeabilized HepG2 cells; assay: Mitochondrial respiratory complexes in rPFO permeabilized HepG2 cells (Seahorse XF); conditions: Homo sapiens, HepG2, read-out: Pyruvate Respiration AC50
[6] = tested on: HepG2 cells; assay: Glu/Gal assay: cellular ATP (CellTiter-Glo) after 24 h in glucose or galactose media; conditions: for AC50 / minimal effective concentration: Homo sapiens, HepG2, 24 h
[7] = tested on: complex I; design: method as in PMID 31104106; conditions: 50 µM, 30 min incubation; cited from earlier work
[8] = tested on: CI-linked respiration; conditions: read-out: concentration inhibiting CI-linked respiration by 50%; rat liver isolated mitochondria; cited from earlier work
[9] = tested on: rPFO permeabilized HepG2 cells
[10] = tested on: HepG2 cells
[11] = tested on: CI; design: method as in PMID 21120605; conditions: 50 µM, 18 h incubation, CHO cells; cited from earlier work
[12] = tested on: ADP-stimulated respiration; conditions: isolated rat liver mitochondria; cited from earlier work
[13] = tested on: liver mitochondria; design: method as in PMID 1347214; conditions: rats fed 1% (w/w) for 75 days; cited from earlier work
[14] = Homo sapiens, HepG2, minimum effective concentration crossing vehicle control threshold, read-out: MEC ATP Production
[15] = Homo sapiens, HepG2, minimum effective concentration crossing vehicle control threshold, read-out: MEC OCR
[16] = Homo sapiens, HepG2, minimum effective concentration crossing vehicle control threshold, read-out: MEC Reserve Capacity
[17] = Homo sapiens, HepG2, concentration at which 50% maximum effect is observed, read-out: AC50 ATP Production
[18] = Homo sapiens, HepG2, concentration at which 50% maximum effect is observed, read-out: AC50 ECAR
[19] = Homo sapiens, HepG2, concentration at which 50% maximum effect is observed, read-out: AC50 OCR
[20] = Homo sapiens, HepG2, concentration at which 50% maximum effect is observed, read-out: AC50 Proton Leak
[21] = Homo sapiens, HepG2, concentration at which 50% maximum effect is observed, read-out: AC50 Reserve Capacity
[22] = Homo sapiens, HepG2, minimum effective concentration crossing vehicle control threshold, read-out: MEC ECAR
[23] = Homo sapiens, HepG2, read-out: AC50 ATP Production
[24] = Homo sapiens, HepG2, read-out: AC50 ECAR
[25] = Homo sapiens, HepG2, read-out: AC50 OCR
[26] = Homo sapiens, HepG2, read-out: AC50 Proton Leak
[27] = Homo sapiens, HepG2, read-out: AC50 Reserve Capacity
[28] = Homo sapiens, HepG2, read-out: MEC ATP Production
[29] = Homo sapiens, HepG2, read-out: MEC OCR

Structure (SMILES)	minimal effective concentration [1, 14]	minimal effective concentration [1, 15]	minimal effective concentration [1, 16]	AC50 [1, 17]	AC50 [1, 18]	AC50 [1, 21]	Cmax [4]	AC50 ([6]; read-out: Gal AC50)	minimal effective concentration ([6]; read-out: Gal MEC)	AC50 ([6]; read-out: Glu AC50)	minimal effective concentration [1, 22]	minimal effective concentration ([6]; read-out: Glu MEC)	other results
O=C1CC2(CCCC2)CC(=O)N1CCCCN1CCN(c2ncccn2)CC1 [Buspirone]	80.9 µM	4.83 µM	8.57 µM	> 100 µM	> 100 µM	43.7 µM	3 nM	99 µM	35.7 µM	> 100 µM	–	–	AC50 [1, 19]: > 100 µM; AC50 [1, 20]: > 100 µM; depletion (cytotoxicity) in Gal media [2]: 60%; IC50 [3]: 48 µM; AC50 [5]: > 100 µM
CN1CCN(C2=Nc3cc(Cl)ccc3Nc3ccccc32)CC1 [Clozapine]	37.3 µM	–	–	> 100 µM	> 100 µM	–	220 nM	60.8 µM	44.4 µM	56.7 µM	20.2 µM	34.1 µM	decrease of complex I activity [7]: 85%
CNCCC(Oc1ccc(C(F)(F)F)cc1)c1ccccc1 (centres unmarked) [Fluoxetine]	68.6 µM	8.12 µM	25.2 µM	–	–	70.4 µM	40 nM	17.5 µM	12.1 µM	13.3 µM	67.3 µM	6.89 µM	IC50 [8]: 250 µM
O=C1Nc2ccc(Cl)cc2C(c2ccccc2Cl)=NC1O (centres unmarked) [Lorazepam]	–	–	–	–	–	–	100 nM	> 100 µM	–	> 100 µM	–	–	AC50 [1, 23]: > 100 µM; AC50 [1, 24]: > 100 µM; AC50 [1, 25]: > 100 µM; AC50 [1, 26]: 15 µM; AC50 [1, 27]: > 100 µM; minimal effective concentration [1, 28]: 3.2 µM; minimal effective concentration [1, 29]: 63.7 µM; minimal effective concentration ([1]; Homo sapiens, HepG2, read-out: MEC Proton Leak): 3.14 µM; Most sensitive mechanism / response in permeabilized HepG2 assay (OCR) [9]: did not significantly inhibit any of the ETC complexes; Effect on cell viability / ATP in Glu and Gal media (in words) [10]: did not exhibit toxicity neither in glucose nor in galactose-grown cells
CN1c2ccccc2C(NCCCCCCC(=O)O)c2ccc(Cl)cc2S1(=O)=O (centres unmarked) [Tianeptine]	–	–	–	–	–	–	–	57.6 µM	41.8 µM	> 100 µM	–	–	AC50 [1, 23]: > 100 µM; AC50 [1, 24]: > 100 µM; AC50 [1, 25]: > 100 µM; AC50 [1, 26]: > 100 µM; AC50 [1, 27]: 21.6 µM; minimal effective concentration [1, 28]: 40.3 µM; minimal effective concentration [1, 29]: 5.5 µM; minimal effective concentration ([1]; Homo sapiens, HepG2, read-out: MEC Reserve Capacity): 0.182 µM; inhibition of CI activity [11]: ~50%
CN1CCN(CCCN2c3ccccc3Sc3ccc(C(F)(F)F)cc32)CC1 [Trifluoperazine]	–	–	< 0.002 µM	–	–	0.157 µM	5 nM	1.13 µM	0.8 µM	1 µM	–	0.75 µM	minimal effective concentration ([1]; minimum effective concentration crossing vehicle control threshold, read-out: MEC Reserve Capacity): <0.002 µM; inhibition of ADP-stimulated respiration (concentration) [12]: 66 µM; Effect on cell viability / ATP in Glu and Gal media (in words) ([6]; 24 h incubation, top concentration): complete loss of cell viability in both media
CCCC(CCC)C(=O)O [Valproic acid]	5200 µM	520 µM	3090 µM	> 10000 µM	> 10000 µM	> 10000 µM	367000 nM	> 10000 µM	–	> 10000 µM	2600 µM	–	minimal effective concentration ([1]; Homo sapiens, HepG2, minimum effective concentration crossing vehicle control threshold, read-out: MEC Proton Leak): 1140 µM; AC50 [1, 19]: > 10000 µM; AC50 [1, 20]: 9180 µM; decrease in the respiration rate with substrates feeding CI and CII [13]: 30%; AC50 [5]: > 10000 µM
